# Legend:
# WT1 protein = system: WT1 protein; parameters: method as in PMID 29274817; conditions: compounds from Mah-Lueang; cited from earlier work
# Experimental for red blood cells: The whole blood samples were obtained from normal volunteers. Red blood cells were separated by centrifugation and washed 2 times with 0.9% NaCl. Then, 2% RBC suspension was incubated with crude fractional extracts and compounds at 37 °C for 30 min. Triton-X 100 (2%) and NaCl (0.9%) were positive and negative controls, respectively. Then, the supernatant was collected, and haemoglobin concentration was measured by spectrophotometry at 540 nm. The haemolysis induction was calculated using the following equation:5 %Haemolysisinduction=Absorbance of sample/Absorbance of positive contr×100
Compound,decrease of WT1 protein in KG-1a cells (WT1 protein) [%],Haemolysis (%) (red blood cells)
"CC(C)=C1C[C@@H]2O[C@@]2(C)CC/C=C(\C)CC1=O [Germacrone-4,5-epoxide]",92.22,
CC(C)=C1C[C@H]2[C@@H](CC[C@]2(C)O)[C@](C)(O)CC1=O [zedoarondiol],95.52,
Triton X100 [0.05% Triton X100],,100

# From publication PMC10257291, “Biological activities of extracts and compounds from Thai Kae-Lae (Maclura cochinchinensis (Lour.) Corner)” (BMC Complementary Medicine and Therapies, 2023)
